The structures appear in SMILES notation.

This series deals with conscious ferrets. The series is described as follows: Gastrointestinal tolerability study: nausea and emesis in conscious ferrets. It counts as in vivo, ferret. To be noted: observed 90 minutes; for % Emesis: oral gavage 30 mg/kg in 2 mL ethanol and 4 mL water, vomiting ferrets / animals dosed; for Nausea Score: oral gavage 30 mg/kg, mean number of nausea behaviors (up to five) per animal. The method, then: Example 3 and three reference compounds were investigated for their ability to produce nausea and emesis in conscious ferrets using the method as described in Drugs, 53(2), 206-234 (1997) and Cancer Treat. Rep., 66(1), 187-189 (1982). Each compound was administered to 6 ferrets by oral gavage at 30 mg/kg in 2 mL of ethanol and 4 mL of water. […] Nausea was preceded by up to five of the following behaviors in the ferret: licking, down, flop, backing, and gag. […] The mean nausea score for a compound is the total number of nausea behaviors divided by the number of animals given the compound. Percent emesis is the total number of vomiting ferrets divided by the number of animals administered the compound.

As to `CC[C@H]1OC(=O)[C@H](C)[C@@H](O[C@H]2C[C@@](C)(OC)[C@@H](O)[C@H](C)O2)[C@H](C)[C@@H](O[C@@H]2O[C@H](C)C[C@H](N(C)C)[C@H]2O)[C@](C)(O)C[C@@H](C)C(=O)[C@H](C)[C@@H](O)[C@]1(C)O` [Erythromycin], the “% Emesis” value is given as 67% and the “Nausea Score” value is 1.2.

Turning to `CC[C@H]1OC(=O)[C@H](C)[C@@H](O[C@H]2C[C@@](C)(OC)[C@@H](O)[C@H](C)O2)[C@H](C)[C@@H](O[C@@H]2O[C@H](C)C[C@H](N(C)C)[C@H]2O)[C@](C)(OC)C[C@@H](C)C(=O)[C@H](C)[C@@H](O)[C@]1(C)O` [Clarithromycin], the “% Emesis” value worked out at 83% and the “Nausea Score” value turned out to be 1.4.

Take `CC[C@H]1OC(=O)[C@H](C)C(=O)[C@H](C)[C@@H](O[C@@H]2O[C@H](C)C[C@H](N(C)C)[C@H]2O)[C@](C)(OC)C[C@@H](C)C(=O)[C@H](C)[C@H]2N(CCCCn3cnc(-c4cccnc4)c3)C(=O)O[C@]12C` [Telithromycin]: the “% Emesis” value is 50% and the “Nausea Score” value is on record as 1.8.

Values taken from patent US20060166906A1, “6-O-substituted erythromycin derivatives having improved gastrointestinal tolerance” (priority 2001, published 2006).
